Read-outs that look alike come from different tables or passages of the source.
Legend:
[1] = test system: central nervous system; assay: Tranquillising effect, exploration test (perforated board); format: in vivo; conditions: mouse, oral route
Experimental: Exploration test (perforated board): the number of holes explored by an animal (mouse) which has unrestricted movement and is placed on the board for the first time, are recorded.

[2] = Acute toxicity (LD50); conditions: in vivo, mouse
Excerpt: Moreover, the compounds of the present invention are not, in general, very toxic.
Toxicity, expressed in mg/kg bodyweight, is given below for certain other compounds when administered by the sub-cutaneous route and by the oral route.

[3] = test system: visceral pain in the mouse; assay: Analgesic effect, Koster and Anderson test (visceral pain induced by intraperitoneal acetic acid); format: in vivo; conditions: oral, 30 minutes before acetic acid injection, read-out: ED50 (50% effective dose reducing by one half the number of symptoms of pain)
Experimental: A visceral pain is induced in the mouse by intraperitonal injection of a dilute solution of acetic acid (Koster and Anderson test).
The animals, which are starved on the day before the experiment, and separated into random batches of five, are treated with the products under test 30 minutes before injection of the irritant. Treatment was always performed orally.
After the acetic solution is injected the animals show symptoms of pain (stretching of the abdomen with extension of the back feet) which are counted during two spells of five minutes for each lot: from the fifth to the tenth minute and from the fifteen to the twentieth minute respectively after the acid is injected.
The ED50 value is expressed in mg per kg bodyweight.
These doses were obtained by oral administration of the products of the invention.

[4] = sc, sub-cutaneous route, read-out: LD50 / toxicity, sub-cutaneous
[5] = oral route, read-out: LD50 / toxicity, oral

| Compound | ED50 [1] | LD50 [2, 4] | LD50 [2, 5] | ED50 [3] |
| --- | --- | --- | --- | --- |
| COc1ccc(-n2cc(CC(C)O)c3ccccc32)cc1 (centres unmarked) [compound 5992] | 1 mg/kg | > 400 mg/kg | > 400 mg/kg |  |
| CC(=O)Cc1cn(CCN(C)C)c2ccccc12 [compound 5353] | 5 mg/kg |  |  | 1.5 mg/kg |
| CCN(CC)CCn1cc(CC(C)O)c2ccccc21 (centres unmarked) [compound 5938] |  |  |  | 1.5 mg/kg |
| CCC(=O)ON=C(C)Cc1cn(CCN(C)C)c2ccccc12 [compound 5473] |  | 200 to 400 mg/kg | > 400 mg/kg | 0.75 to 1.5 mg/kg |
| CC(Cc1cn(CCN(C)C)c2ccccc12)=NO [compound 5354] |  |  |  | 3 mg/kg |
| CC(O)Cc1cn(CCN(C)C)c2ccccc12 (centres unmarked) [compound 5607] |  | 800 mg/kg | > 800 mg/kg | 0.75 mg/kg |
| CC(=O)ON=C(C)Cc1cn(CCN(C)C)c2ccccc12 [compound 5472] | 5 mg/kg | 400 mg/kg | 200 mg/kg | 0.75 to 1.5 mg/kg |
| CCN(CC)CCn1cc(CC(C)=O)c2ccccc21 [compound 5477] |  | 200 mg/kg | 400 mg/kg |  |
| CC(Cc1cn(CCN(C)C)c2ccccc12)=NOCCN(C)C [compound 5444] |  |  |  | 6.25 to 12.5 mg/kg |
